Data: patent US20250268889A1, “COMPOUNDS AND COMBINATIONS THEREOF FOR TREATING NEUROLOGICAL AND PSYCHIATRIC CONDITIONS” (priority 2022, published 2025)
Like-named read-outs stand apart in the source and are kept apart here.

How the values were obtained:
[1] = Pharmacokinetics in moderate renal impairment vs matched controls
Text: (§1) Data are GMRs and 90% CIs. References used are the matched healthy subjects for renal and hepatic impairment studies, and extensive or ultra-extensive CYP2D6 metabolizers respectively.

[2] = Pharmacokinetics in moderate hepatic impairment vs matched healthy subjects; settings: patients having moderate hepatic impairment (Group 2)
Text: as §1

[3] = Solubility of the powder in water
[4] = Pharmacokinetics of the subject combination (steady state); settings: for changes in AUC and Cmax with dose (dose proportionality): steady state, co-administered with bupropion; for AUC0-12 relative to that of bupropion / Cmax relative to peak level of bupropion: metabolite; for apparent elimination half-life: metabolites of bupropion
[5] = Pharmacokinetics in CYP2D6 poor metabolizers vs extensive metabolizers
Text: Approximately 7% to 10% of Caucasians and 3% to 8% of African Americans lack the capacity to metabolize CYP2D6 substrates and are classified as poor metabolizers.
as §1

[6] = Effect of food on pharmacokinetics of the subject combination; settings: subject combination administered with food
[7] = Effect of concomitant 20 mg paroxetine on dextromethorphan exposure (Example 6); settings: tablet of Example 4 twice daily, vs without paroxetine
[8] = Co-administration of paroxetine and the subject combination in healthy volunteers (Example 3); settings: 29 healthy volunteers; paroxetine co-administered with the subject combination
[9] = system: patients with treatment-resistant depression or MDD; settings: cited from earlier work
[10] = human, in vivo
plasma protein = assay: Plasma protein binding; settings: metabolite
[11] = after administration of the subject combination
[12] = 7 subjects with moderate (GFR 30-60 mL/min) renal impairment vs 6 matched controls
[13] = patients having moderate renal impairment

## CC(NC(C)(C)C)C(=O)c1cccc(Cl)c1.Cl (racemic) [bupropion, (±)-1-(3-chlorophenyl)-2-[(1,1-dimethylethyl)amino]-1-propanone hydrochloride]
[1]; human, in vivo
  increase in AUC0-12: 1.80 fold
  increase in Cmax: 1.87 fold
  increase of exposure: approximately 2 fold
  reduction of clearance: 50%
[2]
  AUC0-12 and Cmax compared with healthy patients: not significantly different
[3]
  solubility in water: highly soluble
[4]; [11]
  median Tmax: about 2 hours

## Br.COc1ccc2c(c1)[C@]13CCCC[C@@H]1[C@H](C2)N(C)CC3 [dextromethorphan, morphinan, 3-methoxy-17-methyl-, (9α, 13α, 14α), hydrobromide monohydrate]
[1]; [12]
  increase of exposure: approximately 2 fold
  reduction of clearance: 50%
[1]; [13]
  increase in AUC0-12: 2.21 fold
  increase in Cmax: 2.10 fold
[2]
  AUC0-12 and Cmax compared with healthy patients: not significantly different
[5]; 3 poor metabolizers
  increase in AUC0-12 compared to extensive metabolizers: ~3.4 fold
  increase in Cmax compared to extensive metabolizers: ~3 fold
[5]; 12 poor metabolizers treated in efficacy trials
  steady state plasma concentrations compared to non-poor metabolizers: generally higher
[3]
  solubility in water: sparingly soluble
[4]; following 8 days of administration of the subject combination in extensive metabolizers
  increase of mean elimination half-life compared to dextromethorphan given without bupropion: approximately 3 fold
[4]; varying doses of bupropion (75 to 150 mg)
  changes in AUC and Cmax with dose (dose proportionality): less than dose-proportional
[4]; varying doses of dextromethorphan (30 to 60 mg)
  changes in AUC and Cmax with dose (dose proportionality): greater than dose-proportional
[4]; subject combination
  accumulation ratio at steady state based on AUC0-12: about 32
  accumulation ratio at steady state based on Cmax: about 20
[6]
  change of Cmax with food: unchanged
  decrease of AUC0-12 with food: 14%
[7]
  increase of AUC0-12 with concomitant paroxetine: 2.69 fold
  increase of Cmax with concomitant paroxetine: 2.38 fold
[8]
  increase of overall exposure by paroxetine: 2.5 fold

## CC(NC(C)(C)C)C(O)c1cccc(Cl)c1 (centres unmarked) [erythrohydroxybupropion]
[4]; [11]
  AUC0-12 relative to that of bupropion: about 1.2 times
  Cmax relative to peak level of bupropion: approximately equal to
[4]
  apparent elimination half-life: ~44 h

## CN[C@]1(c2ccccc2Cl)CCCCC1=O [esketamine, Esketamine]
[9]; 56 mg + oral AD, patients <65 years with TRD, fixed-dose study
  Incidence of Sedation (MOAA/S score <5): 50%
[9]; 84 mg + oral AD, patients <65 years with TRD, fixed-dose study
  Incidence of Sedation (MOAA/S score <5): 61%
[9]; 28 to 84 mg + oral AD, patients ≥65 years with TRD, flexible-dose study
  Incidence of Sedation (MOAA/S score <5): 49%
[9]; adults with MDD with acute suicidal ideation or behavior
  incidence of sedation (MOAA/S score <5) compared to placebo plus oral antidepressant: higher incidence of sedation

## C[C@H]1NC(C)(C)CO[C@]1(O)c1cccc(Cl)c1 [hydroxybupropion]
[4]; [11]
  AUC0-12 relative to that of bupropion: about 19 times
  Cmax relative to peak level of bupropion: approximately 14 times
[4]
  apparent elimination half-life: approximately 35 hours

## Fc1ccc([C@@H]2CCNC[C@H]2COc2ccc3c(c2)OCO3)cc1 [paroxetine]
[10]
  increase of overall exposure when co-administered with the subject combination: 1.2 fold

## C[C@H](NC(C)(C)C)[C@@H](O)c1cccc(Cl)c1 [threohydroxybupropion]
Plasma protein
  extent of protein binding compared with bupropion: about half that seen with bupropion
[4]; [11]
  AUC0-12 relative to that of bupropion: about 7 times
  Cmax relative to peak level of bupropion: about 5 times
[4]
  apparent elimination half-life: ~33 h
